The text below walks through data of patent US20190091175A1, “METHOD OF REDUCTION […] TREATING DRAVET SYNDROME” (ZOGENIX INTERNATIONAL LIMITED, priority 2017, published 2019).

For data set [1], the system named is subjects with Dravet syndrome. The experiment in a line: Study 1: Phase 3 double-blind placebo-controlled study of liquid fenfluramine formulation (ZX008) in Dravet syndrome. Type of data set: in vivo, human. How it is done: The first 119 subjects to be randomized in both identical studies combined were analyzed and reported as Study 1 (FIG. 1), covered by a Statistical Analysis Plan (SAP).
Primary and key secondary endpoints in the Study 1 SAP were pre-determined. All patients were treated twice per day over a period of 14 weeks using an oral syringe to administer the formulation. The treatment period included a two-week titration period and a 12-week maintenance period.
The initial results of Study 1 are outlined below. The randomized, double blind, placebo controlled, Phase 3 study enrolled 119 patients across sites in the United States, Canada, Europe and Australia. The median age of patients was 8 years, the mean age of patients was 9 years (range, 2-18 years) (FIG. 2).
Patients were titrated to their target dose over two weeks, and then remained at that fixed dose for 12 weeks. The mean baseline convulsive seizure frequency across the study groups was approximately 40 seizures per month. 110 (92%) patients completed the study (85% 0.8 mg/kg/day; 100% 0.2 mg/kg/day; 93% placebo).
The mean number of convulsive seizure free days, defined as a day for which diary data are available and no convulsive seizures have been reported, was determined for each treatment group during the Baseline and T+M Periods. Using a parametric analysis, comparisons for the ZX008 groups to placebo were estimated from an ANCOVA model with treatment group (3 levels) and age group (<6 years, ≥6 years) as factors, log baseline number of convulsive seizure free days as a covariate and log convulsive seizure free days (Titration+Maintenance, or Maintenance Period) as response. The mean (SD) number of convulsive seizure free days per 28 days during the Baseline Period was 12.6 (7.68), 15.7 (6.80), and 14.6 (7.59) for the placebo, 0.2 and 0.8 mg/kg/day groups, respectively. […] The mean (SD) number of convulsive seizure free days for the 0.2 mg/kg/day group was 17.9 (8.04) days, which was numerically greater than placebo, but was not statistically significant (p=0.514). […]

Data set [2] deals with self-induced photosensitive seizures. The following applies: four cases; cited from earlier work.
For data set [3], the system named is pattern sensitivity-induced seizures. The settings on record: one child; cited from earlier work.
In data set [4] the test system is children with refractory epilepsy. The settings on record: 0.5 to 1 mg/kg/day; cited from earlier work.
Data set [5] concerns patients with Dravet syndrome. The settings on record: long-term fenfluramine treatment; cited from earlier work.

Regarding `CCNC(C)Cc1cccc(C(F)(F)F)c1` (racemic) [Fenfluramine, (RS)-N-ethyl-1-[3-(trifluoromethyl)phenyl]propan-2-amine], the “subjects with an adverse event leading to study termination / discontinuation” value in data set [1] (0.8 mg/kg/day group) is “Five”. For the same compound, in data set [1] (oral, 0.2 and 0.8 mg/kg/day, 14 weeks), the tolerability entry is recorded as “generally well-tolerated”. In data set [1] (throughout the study), the “prospective cardiac safety monitoring (clinical, echocardiographic)” value was “no clinical or echocardiographic evidence of cardiac valvulopathy or pulmonary hypertension”. Also, the “response of self-induced photosensitive seizures” value in data set [2] is “responded to treatment”. In addition, the “effect on self-induced seizures resistant to anticonvulsive treatment” value in data set [3] is “successfully terminated these self-induced seizures”. The “effect on number of seizures” value in data set [4] is recorded as “reduction in the number of seizures”. The “heart valve defects by echocardiography” value in data set [5] is recorded as “No clinically relevant defects were identified”.
